Measured values: article PMC8112869, “Therapeutic inhibition of keratinocyte TRPV3 sensory channel by local anesthetic dyclonine” (eLife, 2021)

Tests used:
TRPV1 = biological target: T1, TRPV1 (Rattus norvegicus, UniProt O35433); test: Whole-cell recording of capsaicin-activated TRPV1 in HEK 293T cells; assay type: cell-based
T1 construct: expressed in transfected cells; host or cells: HEK 293T
Text: (§1) The WT mouse TRPV3 (mTRPV3), human TRPV3 (hTRPV3), rat TRPV1, rat TRPV2, rat TRPM8, and mouse TRPA1 cDNAs were generously provided by Dr. Feng Qin (State University of New York at Buffalo, Buffalo, USA). The GFP-mTRPV3 WT and the mutants (mTRPV3-G573S and mTRPV3-G573C) in pcDNA4/TO vector were gifts from Dr. Michael X Zhu (The University of Texas Health Science Center at Houston, Houston, USA). The WT fTRPV3 was kindly provided by Dr. Makoto Tominaga (Department of Physiological Sciences, SOKENDAI, Okazaki, Japan). All mutations were made using the overlap-extension polymerase chain reaction method as previously described ([Tian et al., 2019]). The resulting mutations were then verified by DNA sequencing. […]
(§2) Conventional whole-cell and excised patch-clamp recording methods were used. […] For a subset of recordings, currents were amplified using an Axopatch 200B amplifier (Molecular Devices, Sunnyvale, CA) and recorded through a BNC-2090/MIO acquisition system (National Instruments, Austin, TX) using QStudio developed by Dr. Feng Qin at State University of New York at Buffalo. […] As determined by the conductance tests, the solution around a patch under study was fully controlled by the application of a flow rate of 100 μl/min or greater. […]

frog TRPV3 (fTRPV3) = frog TRPV3 (fTRPV3) (Xenopus tropicalis, UniProt F6UZP3); test: Whole-cell recording of 2-APB-evoked currents in fTRPV3-expressing HEK 293T cells; assay type: cell-based
Chain of frog TRPV3 (fTRPV3) (F6UZP3 entry or part of it): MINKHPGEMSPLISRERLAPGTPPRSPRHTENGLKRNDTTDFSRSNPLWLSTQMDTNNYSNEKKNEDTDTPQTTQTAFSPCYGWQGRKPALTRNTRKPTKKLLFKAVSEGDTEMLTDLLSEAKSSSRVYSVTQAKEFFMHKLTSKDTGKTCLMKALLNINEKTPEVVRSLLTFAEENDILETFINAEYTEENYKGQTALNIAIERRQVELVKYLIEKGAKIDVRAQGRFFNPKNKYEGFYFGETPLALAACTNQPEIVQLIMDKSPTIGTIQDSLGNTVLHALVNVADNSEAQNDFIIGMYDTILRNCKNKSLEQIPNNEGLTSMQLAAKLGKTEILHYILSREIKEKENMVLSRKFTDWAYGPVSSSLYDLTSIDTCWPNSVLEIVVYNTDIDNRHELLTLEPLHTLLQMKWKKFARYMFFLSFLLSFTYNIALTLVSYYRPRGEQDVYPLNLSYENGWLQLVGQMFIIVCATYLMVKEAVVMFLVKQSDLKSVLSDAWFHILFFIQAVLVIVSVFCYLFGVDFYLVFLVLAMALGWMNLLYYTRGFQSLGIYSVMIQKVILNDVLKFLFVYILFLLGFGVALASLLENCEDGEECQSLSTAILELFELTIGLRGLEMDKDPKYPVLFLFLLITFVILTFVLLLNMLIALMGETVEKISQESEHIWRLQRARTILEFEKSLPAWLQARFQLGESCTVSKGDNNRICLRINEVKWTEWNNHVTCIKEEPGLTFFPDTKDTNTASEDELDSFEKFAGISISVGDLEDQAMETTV
Text: as §1, §2

TRPV3 (G573S) = biological target: T2, TRPV3 (G573S) (Mus musculus, UniProt Q8K424, G573S); test: Whole-cell currents of TRPV3 (G573S) expressed in T-Rex 293 cells; assay type: cell-based
T2 construct: expressed in transfected cells; host or cells: T-Rex 293
T2 sequence (Q8K424 whole entry G573S): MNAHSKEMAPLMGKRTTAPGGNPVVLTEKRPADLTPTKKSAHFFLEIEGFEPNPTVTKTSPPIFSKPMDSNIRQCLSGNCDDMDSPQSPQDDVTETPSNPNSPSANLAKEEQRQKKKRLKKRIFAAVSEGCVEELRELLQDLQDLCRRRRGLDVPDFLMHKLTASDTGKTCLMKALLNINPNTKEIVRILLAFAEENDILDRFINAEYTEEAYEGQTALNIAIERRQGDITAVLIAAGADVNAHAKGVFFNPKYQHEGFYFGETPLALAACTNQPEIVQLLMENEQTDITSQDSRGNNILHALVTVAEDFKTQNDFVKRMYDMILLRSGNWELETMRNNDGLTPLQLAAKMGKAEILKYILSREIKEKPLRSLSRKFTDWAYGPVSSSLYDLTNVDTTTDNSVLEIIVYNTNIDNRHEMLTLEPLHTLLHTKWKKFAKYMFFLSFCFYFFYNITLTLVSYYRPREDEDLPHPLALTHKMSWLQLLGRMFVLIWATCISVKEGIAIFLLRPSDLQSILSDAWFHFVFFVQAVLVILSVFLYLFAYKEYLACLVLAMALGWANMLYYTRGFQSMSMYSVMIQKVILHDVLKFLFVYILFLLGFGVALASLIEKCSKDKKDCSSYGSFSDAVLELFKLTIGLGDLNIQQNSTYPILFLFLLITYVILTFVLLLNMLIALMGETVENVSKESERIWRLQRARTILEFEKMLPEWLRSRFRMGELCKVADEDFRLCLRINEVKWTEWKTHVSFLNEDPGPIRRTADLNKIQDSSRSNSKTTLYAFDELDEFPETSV
Text: as §1, §2

C57B/6 mice = test: Carvacrol-induced itch-scratching behavior in mice; assay type: in vivo, mouse
Protocol: To assess itch-scratching behaviors, the hair of the rostral part of the mouse’s right neck was shaved using an electric hair clipper 24 hr before the start of experiments. Trpv3^-/- mice have been described previously ([Wang et al., 2021]). Scratching behaviors were recorded on video. The number of itch-scratching bouts was counted through video playback analysis. One scratching bout was defined as an episode in which a mouse lifted its right hind limb to the injection site and scratched continuously for any time length until this limb was returned to the floor or mouth ([Wilson et al., 2013]). All behavioral experiments were conducted in a double-blind manner. […] [Sun and Dong, 2016]).

TRPV3 I674A = biological target: T3, TRPV3 I674A (Mus musculus, UniProt Q8K424, I674A); test: Whole-cell recording of TRPV3 mutant I674A in HEK 293T cells; assay type: cell-based; conditions: 2-APB (1 mM)-evoked, –60 mV, read-out: IC50 for inhibition of TRPV3 mutant
T3 construct: expressed in transfected cells; host or cells: HEK 293T
T3 sequence (Q8K424 whole entry I674A): as the sequence (Q8K424 whole entry G573S) above, with S573G, I674A counted along it
Text: as §1, §2

TRPV3 L655A = biological target: T4, TRPV3 L655A (Mus musculus, UniProt Q8K424, L655A); test: Whole-cell recording of TRPV3 mutant L655A in HEK 293T cells; assay type: cell-based; conditions: 2-APB (1 mM)-evoked, –60 mV, read-out: IC50 for inhibition of TRPV3 mutant
T4 construct: expressed in transfected cells; host or cells: HEK 293T
T4 sequence (Q8K424 whole entry L655A): as the sequence (Q8K424 whole entry G573S) above, with S573G, L655A counted along it
Text: as §1, §2

TRPV3 L642A = biological target: T5, TRPV3 L642A (Mus musculus, UniProt Q8K424, L642A); test: Whole-cell recording of TRPV3 mutant L642A in HEK 293T cells; assay type: cell-based; conditions: 2-APB (1 mM)-evoked, –60 mV, read-out: IC50 for inhibition of TRPV3 mutant
T5 construct: expressed in transfected cells; host or cells: HEK 293T
T5 sequence (Q8K424 whole entry L642A): as the sequence (Q8K424 whole entry G573S) above, with S573G, L642A counted along it
Text: as §1, §2

T1 sequence (O35433 whole entry): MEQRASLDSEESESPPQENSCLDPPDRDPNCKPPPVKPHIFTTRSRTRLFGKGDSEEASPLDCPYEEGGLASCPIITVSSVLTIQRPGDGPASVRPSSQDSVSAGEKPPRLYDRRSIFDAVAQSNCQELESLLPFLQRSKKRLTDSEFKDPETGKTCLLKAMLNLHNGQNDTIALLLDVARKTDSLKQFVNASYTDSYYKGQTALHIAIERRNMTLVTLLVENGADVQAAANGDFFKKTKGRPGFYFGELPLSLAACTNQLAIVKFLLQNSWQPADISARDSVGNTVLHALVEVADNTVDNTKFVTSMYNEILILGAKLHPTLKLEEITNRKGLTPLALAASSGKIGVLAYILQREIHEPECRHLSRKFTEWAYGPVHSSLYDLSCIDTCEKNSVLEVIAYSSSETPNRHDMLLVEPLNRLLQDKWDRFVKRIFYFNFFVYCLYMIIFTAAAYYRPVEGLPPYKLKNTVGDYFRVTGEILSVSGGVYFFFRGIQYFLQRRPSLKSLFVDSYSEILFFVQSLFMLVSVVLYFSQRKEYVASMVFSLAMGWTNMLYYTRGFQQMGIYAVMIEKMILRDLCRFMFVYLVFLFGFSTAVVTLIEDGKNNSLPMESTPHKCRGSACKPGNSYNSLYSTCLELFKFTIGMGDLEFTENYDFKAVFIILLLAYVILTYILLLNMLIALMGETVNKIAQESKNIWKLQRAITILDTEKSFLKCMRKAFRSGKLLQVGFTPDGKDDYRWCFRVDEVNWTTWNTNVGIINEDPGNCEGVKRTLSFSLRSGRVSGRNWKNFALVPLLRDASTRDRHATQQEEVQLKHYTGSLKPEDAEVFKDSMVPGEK

SMILES: CCCCOc1ccc(C(=O)CCN2CCCCC2)cc1 [dyclonine]
- Hill coefficient nH (TRPV1): 2.0 ± 0.31
- reduction in current amplitude (TRPV1; 10 μM dyclonine, capsaicin-activated): 2% ± 1%
- Hill coefficient nH (frog TRPV3 (fTRPV3)): 1.6 ± 0.34
- IC50 (frog TRPV3 (fTRPV3); 3 mM 2-APB-evoked, –60 mV, read-out: IC50 on inhibition of fTRPV3 currents): 12.3 µM
- reduction of spontaneous activities (TRPV3 (G573S); 10 μM dyclonine, –60 mV, leak subtracted with 20 μM RR): 74% ± 3%
- 300 μM 2-APB-evoked responses, of control level (TRPV3 (G573S); presence of dyclonine): 10% ± 2%
- scratching bouts over 30 min (C57B/6 mice; 50 μl dyclonine 1 μM intradermal 30 min before carvacrol (0.1%, 50 μl)): 130.0 ± 20.3
- scratching bouts over 30 min (C57B/6 mice; 50 μl dyclonine 10 μM intradermal 30 min before carvacrol (0.1%, 50 μl)): 82.0 ± 15.0
- scratching bouts over 30 min (C57B/6 mice; 50 μl dyclonine 50 μM intradermal 30 min before carvacrol (0.1%, 50 μl)): 18.0 ± 8.0
- IC50 (TRPV3 I674A): 15.1 ± 2.1 µM
- IC50 (TRPV3 L655A): 287 ± 10.4 µM
- IC50 (TRPV3 L642A): 0.25 ± 0.02 µM
